Literature values as cited in patent US11464838B2, “Optimized cancer stem cell vaccines” (COLORADO STATE UNIVERSITY RESEARCH FOUNDATION, priority 2015, dated 2022).

Conditions: in vivo
In the case of `CCOc1nc2cccc(C(=O)O)c2n1Cc1ccc(-c2ccccc2-c2noc(=O)[nH]2)cc1` [Azilsartan], the Bioavailability is given as 60% and the “Biological Half-Life” value is given as 11 hours.
For `CCCCc1ncc(/C=C(\Cc2cccs2)C(=O)O)n1Cc1ccc(C(=O)O)cc1` [Eprosartan], the Bioavailability is given as 13% and the “Biological Half-Life” value is given as 5 hours.
In the case of `CCCCC1=NC2(CCCC2)C(=O)N1Cc1ccc(-c2ccccc2-c2nnn[nH]2)cc1` [Irbesartan], the Bioavailability is listed as 70%.
For `CCCCc1nc(Cl)c(CO)n1Cc1ccc(-c2ccccc2-c2nn[nH]n2)cc1` [Losartan], the “Biological Half-Life” value is given as 2 hours.
